Experimental data reported in patent publication US8399515B2, “Five and fifteen carbon fatty acids for treating metabolic disorders and as nutritional supplements” (Baylor Research Institute, priority 2003, dated 2013).
“And” between values parts separate entries of the source, which are not always exact repeats. Equal values may be shown once.

How the values were obtained:
[1] = tested on: fibroblasts from patients with Very-long-chain acyl-CoA dehydrogenase (VLCAD) deficiency, severe cardiac form; assay: Propionylcarnitine from oxidation of odd-carbon fatty acids in VLCAD (cardiac) fibroblasts; assay type: cell-based, human; settings: VLCAD cardiac fibroblasts, one line per patient, 72 hours incubation
Description: (§1) Fibroblasts obtained from patients with inherited defects of mitochondrial fat oxidation were cultured in the presence of omega deuterated odd-carbon numbered fatty acids, as described in Roe, C. R., Sweetman, L., Roe, D. S., David, F., Brunengraber, H., “Effective Dietary Treatment of Cardiomyopathy & Rhabdomyolysis in Long-Chain Fat Oxidation Disorders using an Anaplerotic Odd-Chain Triglyceride,” J. Clin. Invest. 110 (2): 259-269 (2002).
(§2) The data in Table 1 represents testing of cultured fibroblasts derived from ten patients afflicted with Very-long-chain acyl-CoA dehydrogenase (VLCAD) deficiency (six patients with the severe cardiac form and four with the non-cardiac milder phenotype), two patients with Mitochondrial Trifunctional Protein (MTP) deficiency, five patients having L-3-hydroxy-acyl-CoA dehydrogenase (LCHAD) deficiency and three patients with Short-chain acyl-CoA dehydrogenase (SCAD) deficiency.

[2] = tested on: fibroblasts from patients with VLCAD deficiency, non-cardiac milder phenotype; assay: Propionylcarnitine from oxidation of odd-carbon fatty acids in VLCAD (non-cardiac) fibroblasts; assay type: cell-based, human; settings: VLCAD non-cardiac fibroblasts, one line per patient, 72 hours incubation
Description: as §1, §2

[3] = tested on: fibroblasts from patients with Mitochondrial Trifunctional Protein (MTP) deficiency; assay: Propionylcarnitine from oxidation of odd-carbon fatty acids in MTP fibroblasts; assay type: cell-based, human; settings: MTP fibroblasts, one line per patient, 72 hours incubation
Description: as §1, §2

[4] = tested on: fibroblasts from patients with L-3-hydroxy-acyl-CoA dehydrogenase (LCHAD) deficiency; assay: Propionylcarnitine from oxidation of odd-carbon fatty acids in LCHAD fibroblasts; assay type: cell-based, human; settings: LCHAD fibroblasts, one line per patient, 72 hours incubation
Description: as §1, §2

[5] = tested on: fibroblasts from patients with Short-chain acyl-CoA dehydrogenase (SCAD) deficiency; assay: Propionylcarnitine from oxidation of odd-carbon fatty acids in SCAD fibroblasts; assay type: cell-based, human; settings: SCAD fibroblasts, one line per patient, 72 hours incubation
Description: as §1, §2

[6] = tested on: MCAD-deficient fibroblasts; assay: Fate of odd-carbon fatty acids in MCAD-deficient fibroblasts; assay type: cell-based, human; set-up: *C3 acylcarnitine / *C5 acylcarnitine / *C7 acylcarnitine / *C9 acylcarnitine / *C11 acylcarnitine / *C13 acylcarnitine / *C15 acylcarnitine: unit not given here; settings: for *C3 acylcarnitine / *C5 acylcarnitine / *C7 acylcarnitine / *C9 acylcarnitine: MCAD fibroblasts, N 4
Description: as §1
Fibroblasts from four patients with MCAD deficiency and one heterozygote (carrier) indicate that odd-carbon fatty acids containing more than seven carbons can not be effectively used in that disease. […]

[7] = tested on: fibroblasts from MCAD heterozygote (carrier); assay: Fate of odd-carbon fatty acids in MCAD carrier fibroblasts; assay type: cell-based, human; set-up: unit not given here
Description: as §1
Fibroblasts from four patients with MCAD deficiency and one heterozygote (carrier) indicate that odd-carbon fatty acids containing more than seven carbons can not be effectively used in that disease. […] That any C3 was produced is presumably due to overlapping

[8] = tested on: control / normal fibroblasts; assay: Fate of odd-carbon fatty acids in control (normal) fibroblasts; assay type: cell-based, human; set-up: *C3 acylcarnitine / *C5 acylcarnitine / *C7 acylcarnitine / *C9 acylcarnitine / *C11 acylcarnitine / *C13 acylcarnitine / *C15 acylcarnitine: unit not given here; settings: for Propionylcarnitine from odd carbon precursor: NORMAL fibroblasts
Description: Fibroblasts obtained from patients with inherited defects of mitochondrial fat oxidation were cultured in the presence of omega deuterated odd-carbon numbered fatty acids, as described in Roe, C. R., Sweetman, L., Roe, D. S., David, F., Brunengraber, H., “Effective Dietary Treatment of Cardiomyopathy & Rhabdomyolysis in Long-Chain Fat Oxidation Disorders using an Anaplerotic Odd-Chain Triglyceride,” J. Clin. Invest. 110 (2): 259-269 (2002). […]

VLCAD patient = assay: Meal test with triheptanoin or tripentanoin in a VLCAD patient; assay type: in vivo, human; set-up: Myristenoylcarnitine Level: unit not given here; settings: for Myristenoylcarnitine Level / Propionylcarnitine Level: blood
Excerpt: (§3) A VLCAD patient and an SCAD patient, both of whom had gastrostomy sites for enteral administration, each were provided with separate meals containing equimolar amounts of triheptanoin (C7) and tripentanoin (C5) at different times on the same day. Each patient was given the amount in 1 of 4 daily meals equivalent to a diet of 3 gms/Kg/day or about 30% of total Kcal as the triglyceride. Serial blood samples were obtained hourly and individual urines were collected at baseline and during the meal.
(§4) The patient with VLCAD (FIG. 3) was monitored over a 3 hour interval and the SCAD patient was monitored for 4 hours after beginning the meal. […] One way the VLCAD patient was monitored was for myristenoylcamitine (cis-5-C14:1), which reflects oxidation of oleate and is therefore an indication of ongoing lipolysis during the meal tests (it is not derived from either C7 or C5). […] These changes are not observed with even-carbon triglycerides.

SCAD patient = assay: Meal test with triheptanoin or tripentanoin in a SCAD patient; assay type: in vivo, human
Excerpt: as §3, §4
The second patient with SCAD deficiency (FIG. 4) had been receiving the triheptanoin diet for more than 2 years. This disorder is due to an inherited deficiency of butyryl-CoA dehydrogenase (SCAD) and is known to oxidize even carbon fatty acids of 4-6 carbon chain length.
In FIG. 4, C7-C3 represents the blood levels of C3 derived from C7; and C5-C3 represents the blood levels of C3 derived from C5, C7-C5 represents blood levels of pentanoylcarnitine (C5) derived from C7 meals and C5-C5 represents blood levels of pentanoylcarnitine (C5) derived from C5 meals. […] C7-C4 and C5-C4 represent the levels of the disease-specific acylcarnitine (butyrylcarnitine [C4]) observed in SCAD deficiency. […] This increased quantity of C3 corresponds to those observed for SCAD deficiency in the fibroblast studies above shown in Table 1.

CCCCCCC(=O)O [C7, heptanoate, reference compound]
Propionylcarnitine from oxidation of fatty acid [1]: 28.7 nmol/mg Protein/72 hours and 13.0 nmol/mg Protein/72 hours and 44.5 nmol/mg Protein/72 hours and 17.8 nmol/mg Protein/72 hours and 20.4 nmol/mg Protein/72 hours and 25.0 nmol/mg Protein/72 hours
Propionylcarnitine from oxidation of fatty acid [2]: 22.6 nmol/mg Protein/72 hours and 20.3 nmol/mg Protein/72 hours and 24.3 nmol/mg Protein/72 hours and 14.4 nmol/mg Protein/72 hours
Propionylcarnitine from oxidation of fatty acid [3]: 24.1 nmol/mg Protein/72 hours and 48.1 nmol/mg Protein/72 hours
Propionylcarnitine from oxidation of fatty acid [4]: 53.2 nmol/mg Protein/72 hours and 23.5 nmol/mg Protein/72 hours and 24.0 nmol/mg Protein/72 hours and 10.6 nmol/mg Protein/72 hours and 22.7 nmol/mg Protein/72 hours
Propionylcarnitine from oxidation of fatty acid [5]: 57.7 nmol/mg Protein/72 hours and 32.4 nmol/mg Protein/72 hours and 39.2 nmol/mg Protein/72 hours
*C3 acylcarnitine ([6]; Maximum): 15.4
*C5 acylcarnitine ([6]; Maximum): 1.8
*C7 acylcarnitine ([6]; Maximum): 12.0
*C3 acylcarnitine ([6]; Mean): 8.3
*C5 acylcarnitine ([6]; Mean): 1.1
*C7 acylcarnitine ([6]; Mean): 8.3
*C3 acylcarnitine ([6]; Minimum): 5.7
*C5 acylcarnitine ([6]; Minimum): 0.7
*C7 acylcarnitine ([6]; Minimum): 2.4
Propionylcarnitine from odd carbon precursor ([6]; MCAD-1 fibroblast cell line): 10.6 nmol/mg Protein/72 hours
Propionylcarnitine from odd carbon precursor ([6]; MCAD-2 fibroblast cell line): 17.4 nmol/mg Protein/72 hours
*C3 acylcarnitine [7]: 16.3
*C5 acylcarnitine [7]: 0.9
*C7 acylcarnitine [7]: 0.5
*C3 acylcarnitine ([8]; CONTROL MEAN, N = 4): 24.3
*C5 acylcarnitine ([8]; CONTROL MEAN, N = 4): 1.3
*C7 acylcarnitine ([8]; CONTROL MEAN, N = 4): 0.4
Propionylcarnitine from odd carbon precursor [8]: 24.3 nmol/mg Protein/72 hours
Myristenoylcarnitine Level (VLCAD patient; time 0 hours, cis-5-C14:1, marker of lipolysis): 2.61
Propionylcarnitine Level (VLCAD patient; time 0 hours, enteral meal via gastrostomy): 1.39
Myristenoylcarnitine Level (VLCAD patient; time 1 hours): 2.83
Propionylcarnitine Level (VLCAD patient; time 1 hours): 2.89
Myristenoylcarnitine Level (VLCAD patient; time 2 hours): 1.38
Propionylcarnitine Level (VLCAD patient; time 2 hours): 3.78
Myristenoylcarnitine Level (VLCAD patient; time 3 hours): 2.64
Propionylcarnitine Level (VLCAD patient; time 3 hours): 4.57
Clinical or biochemical toxicity (VLCAD patient; meal test, 3 hour interval): no clinical or biochemical toxicity
Clinical or biochemical toxicity (SCAD patient; meal test, 4 hours): no clinical or biochemical toxicity
Relative Blood Levels of Fatty Acid Chain Lengths: C3 (SCAD patient; time 0 hours): 3.00
Relative Blood Levels of Fatty Acid Chain Lengths: C4 (butyrylcarnitine) (SCAD patient; time 0 hours): 0.34
Relative Blood Levels of Fatty Acid Chain Lengths: C3 (SCAD patient; time 1 hours): 2.08
Relative Blood Levels of Fatty Acid Chain Lengths: C4 (butyrylcarnitine) (SCAD patient; time 1 hours): 0.16
Relative Blood Levels of Fatty Acid Chain Lengths: C3 (SCAD patient; time 2 hours): 2.42
Relative Blood Levels of Fatty Acid Chain Lengths: C4 (butyrylcarnitine) (SCAD patient; time 2 hours): 0.23
Relative Blood Levels of Fatty Acid Chain Lengths: C3 (SCAD patient; time 3 hours): 3.29
Relative Blood Levels of Fatty Acid Chain Lengths: C4 (butyrylcarnitine) (SCAD patient; time 3 hours): 0.26
Relative Blood Levels of Fatty Acid Chain Lengths: C3 (SCAD patient; time 4 hours): 2.61
Relative Blood Levels of Fatty Acid Chain Lengths: C4 (butyrylcarnitine) (SCAD patient; time 4 hours): 0.30

CCCCCCCCC(=O)O [C9, nonanoate, reference compound]
*C3 acylcarnitine ([6]; Maximum): 5.5
*C5 acylcarnitine ([6]; Maximum): 0.7
*C7 acylcarnitine ([6]; Maximum): 4.2
*C9 acylcarnitine ([6]; Maximum): 10.3
*C3 acylcarnitine ([6]; Mean): 3.0
*C5 acylcarnitine ([6]; Mean): 0.5
*C7 acylcarnitine ([6]; Mean): 2.8
*C9 acylcarnitine ([6]; Mean): 7.3
*C3 acylcarnitine ([6]; Minimum): 1.6
*C5 acylcarnitine ([6]; Minimum): 0.3
*C7 acylcarnitine ([6]; Minimum): 1.6
*C9 acylcarnitine ([6]; Minimum): 4.0
Propionylcarnitine from odd carbon precursor ([6]; MCAD-1 fibroblast cell line): 1.8 nmol/mg Protein/72 hours
Propionylcarnitine from odd carbon precursor ([6]; MCAD-2 fibroblast cell line): 2.9 nmol/mg Protein/72 hours
*C3 acylcarnitine [7]: 6.0
*C5 acylcarnitine [7]: 0.4
*C7 acylcarnitine [7]: 0.4
*C9 acylcarnitine [7]: 3.2
*C3 acylcarnitine ([8]; CONTROL MEAN, N = 4): 3.9
*C5 acylcarnitine ([8]; CONTROL MEAN, N = 4): 0.4
*C7 acylcarnitine ([8]; CONTROL MEAN, N = 4): 0.3
*C9 acylcarnitine ([8]; CONTROL MEAN, N = 4): 2.0
Propionylcarnitine from odd carbon precursor [8]: 3.9 nmol/mg Protein/72 hours
